From patent US6376497B1, “Antifungal azole derivatives having a fluorinated vinyl group and process for preparing same” (Korea Research Institute of Chemical Technology, priority 1999, dated 2002)
Values after ≈ are worked out from the molar mass of the structure shown.

Key:
Test in all cases: In vitro antifungal activity, microbroth dilution MIC
Type in all cases: cell-based
[1] = system: Trichophyton mentagrophytes A. 9129; details: 4 to 48 hours; for Minimal inhibitory concentration(MIC), T. mentagrophytes A. 9129: RPMI-1640, 35° C., no growth observed; for Minimal inhibitory concentration (MIC): T. mentagrophytes A. 9129, RPMI-1640, 35° C.
In short: (§1)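 Broth microdilution adapted from NCCLS M27, in RPMI-1640 with 0.165 M MOPS, pH 7.0. Yeast or mould inoculum at 2×10^3 CFU/ml was mixed 1:1 with DMSO-derived compound solutions (200 to 0.10 μg/ml before mixing) and incubated at 35 °C for 4 to 48 h. MIC was the concentration showing no growth.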

[2] = system: Candida albicans IFO. 1385; details: 4 to 48 hours; for Minimal inhibitory concentration(MIC), C. albicans IFO. 1385: RPMI-1640, 35° C., no growth observed; for Minimal inhibitory concentration (MIC): C. albicans IFO. 1385, RPMI-1640, 35° C.
In short: as §1

[3] = system: Candida pseudotropicalis K. 11658; details: 4 to 48 hours; for Minimal inhibitory concentration(MIC), C. pseudotropicalis K. 11658: RPMI-1640, 35° C., no growth observed; for Minimal inhibitory concentration (MIC): C. pseudotropicalis K. 11658, RPMI-1640, 35° C.
In short: as §1

[4] = system: Cryptococcus neoformans IFM. 40092; details: 4 to 48 hours; for Minimal inhibitory concentration(MIC), Cry. neoformans IFM. 40092: RPMI-1640, 35° C., no growth observed; for Minimal inhibitory concentration (MIC): Cry. neoformans IFM. 40092, RPMI-1640, 35° C.
In short: as §1

[5] = system: Candida tropicalis A. 13803; details: 4 to 48 hours; for Minimal inhibitory concentration(MIC), C. tropicalis A. 13803: RPMI-1640, 35° C., no growth observed; for Minimal inhibitory concentration (MIC): C. tropicalis A. 13803, RPMI-1640, 35° C.
In short: as §1

[6] = system: Cryptococcus neoformans B. 42419; details: 4 to 48 hours; for Minimal inhibitory concentration(MIC), Cry. neoformans B. 42419: RPMI-1640, 35° C., no growth observed; for Minimal inhibitory concentration (MIC): Cry. neoformans B. 42419, RPMI-1640, 35° C.
In short: as §1

Candida albicans C1-2 = details: 4 to 48 hours; for Minimal inhibitory concentration(MIC), C. albicans C1-2: RPMI-1640, 35° C., no growth observed; for Minimal inhibitory concentration (MIC): C. albicans C1-2, RPMI-1640, 35° C.
In short: as §1

[7] = system: Cryptococcus neoformans A. 34144; details: 4 to 48 hours; for Minimal inhibitory concentration(MIC), Cry. neoformans A. 34144: RPMI-1640, 35° C., no growth observed; for Minimal inhibitory concentration (MIC): Cry. neoformans A. 34144, RPMI-1640, 35° C.
In short: as §1

Candida krusei K. 11655 = details: 4 to 48 hours; for Minimal inhibitory concentration(MIC), C. krusei K. 11655: RPMI-1640, 35° C., no growth observed; for Minimal inhibitory concentration (MIC): C. krusei K. 11655, RPMI-1640, 35° C.
In short: as §1

[8] = system: Aspergillus furnigatus B. 19119; details: 4 to 48 hours; for Minimal inhibitory concentration(MIC), A furnigatus B. 19119: RPMI-1640, 35° C., no growth observed; for Minimal inhibitory concentration (MIC): A furnigatus B. 19119, RPMI-1640, 35° C.
In short: as §1

[9] = system: Candida parapsitosis A. 7330; details: 4 to 48 hours; for Minimal inhibitory concentration(MIC), C. parapsitosis A. 7330: RPMI-1640, 35° C., no growth observed; for Minimal inhibitory concentration (MIC): C. parapsitosis A. 7330, RPMI-1640, 35° C.
In short: as §1

[10] = system: Trichophyton mentagrophytes B. 32663; details: 4 to 48 hours; for Minimal inhibitory concentration(MIC), T. mentagrophytes B. 32663: RPMI-1640, 35° C., no growth observed; for Minimal inhibitory concentration (MIC): T. mentagrophytes B. 32663, RPMI-1640, 35° C.
In short: as §1

[11] = system: Candida albicans A. 10231; details: 4 to 48 hours; for Minimal inhibitory concentration(MIC), C. albicans A. 10231: RPMI-1640, 35° C., no growth observed; for Minimal inhibitory concentration (MIC): C. albicans A. 10231, RPMI-1640, 35° C.
In short: as §1

[12] = system: Torulopsis glabrata B. 16205; details: 4 to 48 hours; for Minimal inhibitory concentration(MIC), T. glabrata B. 16205: RPMI-1640, 35° C., no growth observed; for Minimal inhibitory concentration (MIC): T. glabrata B. 16205, RPMI-1640, 35° C.
In short: as §1

[13] = system: Aspergillus niger A. 16404; details: 4 to 48 hours; for Minimal inhibitory concentration(MIC), A. niger A. 16404: RPMI-1640, 35° C., no growth observed; for Minimal inhibitory concentration (MIC): A. niger A. 16404, RPMI-1640, 35° C.
In short: as §1

Row | Compound | Minimal inhibitory concentration(MIC), T. mentagrophytes A. 9129 [1] [mg/L] | Minimal inhibitory concentration(MIC), C. albicans IFO. 1385 [2] [mg/L] | Minimal inhibitory concentration(MIC), C. pseudotropicalis K. 11658 [3] [mg/L] | Minimal inhibitory concentration(MIC), Cry. neoformans IFM. 40092 [4] [mg/L] | Minimal inhibitory concentration(MIC), C. tropicalis A. 13803 [5] [mg/L] | Minimal inhibitory concentration (MIC) [1] [mg/L] | Minimal inhibitory concentration (MIC) [2] [mg/L] | Minimal inhibitory concentration (MIC) [3] [mg/L] | Minimal inhibitory concentration (MIC) [4] | Minimal inhibitory concentration (MIC) [5] [mg/L] | Minimal inhibitory concentration (MIC) [6] [mg/L] | Minimal inhibitory concentration (MIC) (Candida albicans C1-2) [mg/L] | Minimal inhibitory concentration (MIC) [7] [mg/L] | Minimal inhibitory concentration (MIC) (Candida krusei K. 11655) [mg/L] | Minimal inhibitory concentration (MIC) [8] [mg/L] | Minimal inhibitory concentration (MIC) [9] [mg/L] | Minimal inhibitory concentration (MIC) [10] | Minimal inhibitory concentration (MIC) [11] [mg/L] | Minimal inhibitory concentration (MIC) [12] [mg/L] | Minimal inhibitory concentration (MIC) [13] [mg/L] | further results
1 | Cc1cccc(C(=C(F)Oc2ccc(OCC3COC(Cn4ccnc4)(c4ccc(F)cc4F)O3)cc2)C(F)(F)F)c1 (mixture of isomers) [Ex. 107] | 12.5 | 3.13 | 100 | 0.39 | >100 | – | – | – | – | – | – | – | – | – | – | – | – | – | – | – | Minimal inhibitory concentration(MIC), Cry. neoformans B. 42419 [6]: 3.13 mg/L; Minimal inhibitory concentration(MIC), C. albicans C1-2 (Candida albicans C1-2): 50.0 mg/L; Minimal inhibitory concentration(MIC), Cry. neoformans A. 34144 [7]: 1.56 mg/L; Minimal inhibitory concentration(MIC), C. krusei K. 11655 (Candida krusei K. 11655): >100 mg/L; Minimal inhibitory concentration(MIC), A furnigatus B. 19119 [8]: >100 mg/L; Minimal inhibitory concentration(MIC), C. parapsitosis A. 7330 [9]: >100 mg/L; Minimal inhibitory concentration(MIC), T. mentagrophytes B. 32663 [10]: 3.13 mg/L; Minimal inhibitory concentration(MIC), C. albicans A. 10231 [11]: 100 mg/L; Minimal inhibitory concentration(MIC), T. glabrata B. 16205 [12]: 100 mg/L; Minimal inhibitory concentration(MIC), A. niger A. 16404 [13]: >100 mg/L
2 | FC(Oc1ccc(OCC2COC(Cn3cncn3)(c3ccc(Cl)cc3Cl)O2)cc1)=C(c1ccc(F)cc1)C(F)(F)F (mixture of isomers) [Ex. 123] | 6.25 | 1.56 | 25.0 | 0.39 | 100 | – | – | – | – | – | – | – | – | – | – | – | – | – | – | – | Minimal inhibitory concentration(MIC), Cry. neoformans B. 42419 [6]: 1.56 mg/L; Minimal inhibitory concentration(MIC), C. albicans C1-2 (Candida albicans C1-2): 12.5 mg/L; Minimal inhibitory concentration(MIC), Cry. neoformans A. 34144 [7]: 1.56 mg/L; Minimal inhibitory concentration(MIC), C. krusei K. 11655 (Candida krusei K. 11655): >100 mg/L; Minimal inhibitory concentration(MIC), A furnigatus B. 19119 [8]: >100 mg/L; Minimal inhibitory concentration(MIC), C. parapsitosis A. 7330 [9]: >100 mg/L; Minimal inhibitory concentration(MIC), T. mentagrophytes B. 32663 [10]: 3.13 mg/L; Minimal inhibitory concentration(MIC), C. albicans A. 10231 [11]: 25.0 mg/L; Minimal inhibitory concentration(MIC), T. glabrata B. 16205 [12]: 50.0 mg/L; Minimal inhibitory concentration(MIC), A. niger A. 16404 [13]: >100 mg/L
3 | FC(=Cc1ccc(F)cc1)OCC1COC(Cn2ccnc2)(c2ccc(F)cc2F)O1 (mixture of isomers) [Ex. 49] | – | – | – | – | – | 0.39 | 0.20 | 12.5 | ≦0.10 μg/ml | 50.0 | 0.78 | 25.0 | 0.78 | 25.0 | 1.56 | 25.0 | ≦0.10 μg/ml | 25.0 | 12.5 | 6.25 | –
4 | CC(C)Oc1cccc(C=C(F)OCC2COC(Cn3ccnc3)(c3ccc(Cl)cc3Cl)O2)c1 (stereo not drawn) [Ex. 11] | – | – | – | – | – | 12.5 (≈ 24.6 µM) | 1.56 (≈ 3.07 µM) | 3.13 (≈ 6.17 µM) | 0.39 mg/L (≈ 0.769 µM) | 50.0 (≈ 98.5 µM) | 1.56 (≈ 3.07 µM) | 25.0 (≈ 49.3 µM) | 1.56 (≈ 3.07 µM) | 12.5 (≈ 24.6 µM) | 12.5 (≈ 24.6 µM) | 6.25 (≈ 12.3 µM) | 1.56 mg/L (≈ 3.07 µM) | 25.0 (≈ 49.3 µM) | 12.5 (≈ 24.6 µM) | 50.0 (≈ 98.5 µM) | –
5 | FC(=Cc1cccc2ccccc12)OCC1COC(Cn2ccnc2)(c2ccc(F)cc2F)O1 (mixture of isomers) [Ex. 51] | – | – | – | – | – | 1.56 | 0.39 | 25.0 | 0.20 mg/L | 25.0 | 1.56 | 12.5 | 1.56 | 50.0 | 3.13 | >100 | 0.78 mg/L | 12.5 | 6.25 | 12.5 | –
6 | FC(OCC1COC(Cn2ccnc2)(c2ccc(F)cc2F)O1)=C(c1ccc(Oc2ccccc2)cc1)C(F)(F)F (mixture of isomers) [Ex. 63] | – | – | – | – | – | 25.0 | 3.13 | >100 | 0.39 mg/L | >100 | 1.56 | 50.0 | 1.56 | >100 | >100 | >100 | 6.25 mg/L | 25.0 | 25.0 | >100 | –
7 | FC(=C(c1ccc(C(F)(F)F)cc1)C(F)(F)F)N1CCN(c2ccc(OCC3COC(Cn4ccnc4)(c4ccc(Cl)cc4Cl)O3)cc2)CC1 (mixture of isomers) [Ex. 130] | 25.0 | 3.13 | 1.56 | 0.20 | >100 | – | – | – | – | – | – | – | – | – | – | – | – | – | – | – | Minimal inhibitory concentration(MIC), Cry. neoformans B. 42419 [6]: 0.78 mg/L; Minimal inhibitory concentration(MIC), C. albicans C1-2 (Candida albicans C1-2): >100 mg/L; Minimal inhibitory concentration(MIC), Cry. neoformans A. 34144 [7]: 0.78 mg/L; Minimal inhibitory concentration(MIC), C. krusei K. 11655 (Candida krusei K. 11655): 1.56 mg/L; Minimal inhibitory concentration(MIC), A furnigatus B. 19119 [8]: >100 mg/L; Minimal inhibitory concentration(MIC), C. parapsitosis A. 7330 [9]: 1.56 mg/L; Minimal inhibitory concentration(MIC), T. mentagrophytes B. 32663 [10]: 12.5 mg/L; Minimal inhibitory concentration(MIC), C. albicans A. 10231 [11]: >100 mg/L; Minimal inhibitory concentration(MIC), T. glabrata B. 16205 [12]: >100 mg/L; Minimal inhibitory concentration(MIC), A. niger A. 16404 [13]: >100 mg/L
